Results published in patent US20230190754A1, “Therapeutic combinations for the treatment of Progressive Fibrosing interstitial lung diseases” (Boehringer Ingelheim International GmbH, priority 2021, published 2023).
Marks after values point to notes of the source that are not given here.

Tested on: IPF patients
Assay: Phase II clinical trial in IPF patients: Treatment Emergent Adverse Events (safety/tolerability), up to 13 weeks
[1] = Non-AF-group, 18 mg b.i.d., listed as Compound of Formula III
[2] = Non-AF-group, 18 mg b.i.d., listed as active agent

[O-][S@+]1CCc2nc(N3CCC(c4ncc(Cl)cn4)CC3)nc(NC3(CO)CCC3)c21 [Comp. of form. III]
1: AE: Decreased appetite, patients n (Non-AF-group, 18 mg b.i.d.) | AE: Dizziness, patients n (Non-AF-group, 18 mg b.i.d.) | AE: Metabolism and nutrition disorders, patients n (Non-AF-group, 18 mg b.i.d.) | AE: Oedema peripheral, patients n (Non-AF-group, 18 mg b.i.d.) | AE: Pyrexia, patients n (Non-AF-group, 18 mg b.i.d.) | AE: Rhinorrhoea, patients n (Non-AF-group, 18 mg b.i.d.) | AE: Vomiting, patients n (Non-AF-group, 18 mg b.i.d.) | Gastrointestinal disorders leading to discontinuation of trial treatment, patients n (Non-AF-group, 18 mg b.i.d.) | SAE: COPD, patients n (Non-AF-group, 18 mg b.i.d.) | SAE: Cardiac disorders, patients n (Non-AF-group, 18 mg b.i.d.) | SAE: Cardiac failure congestive, patients n (Non-AF-group, 18 mg b.i.d.) | SAE: Covid-19 pneumonia (fatal event), patients n (Non-AF-group, 18 mg b.i.d.) | SAE: Dyspnoea, patients n (Non-AF-group, 18 mg b.i.d.) | SAE: Infections and Infestations, patients n (Non-AF-group, 18 mg b.i.d.) | SAE: Lung neoplasm, patients n (Non-AF-group, 18 mg b.i.d.) | SAE: Neoplasms benign, malignant and unspecified, patients n (Non-AF-group, 18 mg b.i.d.) | SAE: Respiratory, thoracic and mediastinal disorders, patients n (Non-AF-group, 18 mg b.i.d.) | Vomiting leading to discontinuation of trial treatment, patients n (Non-AF-group, 18 mg b.i.d.)
(14.6) %: AE: Infections and infestations, patients % (Non-AF-group, 18 mg b.i.d.)
(13.4) %: Nervous system disorders, % (Total, N = 97)
31: Any AE, patients n (Non-AF-group, 18 mg b.i.d.)
5: AE: Investigations, patients n (Non-AF-group, 18 mg b.i.d.)
16.7%: AE: Diarrhoea, patients % (Non-AF-group, 18 mg b.i.d.) | AE: Diarrhoea, patients % [2]
(4.2) %: AE: Fatigue, patients % (Non-AF-group, 18 mg b.i.d.) | AE: Musculoskeletal and connective tissue disorders, patients % (Non-AF-group, 18 mg b.i.d.) | AE: Nausea, patients % (Non-AF-group, 18 mg b.i.d.) | AE: Weight decreased, patients % (Non-AF-group, 18 mg b.i.d.) | Severe AEs, patients % (Non-AF-group, 18 mg b.i.d.)
(14.4) %: Infections and infestations, % (Total, N = 97) | Respiratory, thoracic and mediastinal disorders, % (Total, N = 97)
(16.7) %: AE: Respiratory, thoracic and mediastinal disorders, patients % (Non-AF-group, 18 mg b.i.d.) | AE: Diarrhoea, patients % [1]
(10.4) %: AE: Investigations, patients % (Non-AF-group, 18 mg b.i.d.)
(23.7) %: Diarrhoea, % (Total, N = 97)
13: AE: Gastrointestinal disorders, patients n (Non-AF-group, 18 mg b.i.d.)
4: AE: Nervous system disorders, patients n (Non-AF-group, 18 mg b.i.d.)
(7.2) %: Cough, % (Total, N = 97)
(4.1) %: Asthenia, % (Total, N = 97) | Metabolism and nutrition disorders, % (Total, N = 97) | Nasopharyngitis, % (Total, N = 97)
(3.1) %: Constipation, % (Total, N = 97) | Decreased appetite, % (Total, N = 97) | Dyspnoea, % (Total, N = 97) | Fatigue, % (Total, N = 97) | Nausea, % (Total, N = 97) | Vomiting, % (Total, N = 97) | Weight decreased, % (Total, N = 97)
(27.1) %: AE: Gastrointestinal disorders, patients % (Non-AF-group, 18 mg b.i.d.)
(6.2) %: Headache, % (Total, N = 97)
(5.2) %: Dyspepsia, % (Total, N = 97) | Flatulence, % (Total, N = 97) | Musculoskeletal and connective tissue disorders, % (Total, N = 97)
2.1%: Gastrointestinal disorders leading to discontinuation of trial treatment, patients % [2]
64.6%: Any AE, patients % [2]
(15.5) %: Investigations, % (Total, N = 97)
(8.3) %: AE: Nervous system disorders, patients % (Non-AF-group, 18 mg b.i.d.)
(2.1)* %: SAE: Covid-19 pneumonia (fatal event), patients % (Non-AF-group, 18 mg b.i.d.)
9: AE: General disorders and administration site conditions, patients n (Non-AF-group, 18 mg b.i.d.)
(64.6) %: Any AE, patients % [1]
2: AE: Fatigue, patients n (Non-AF-group, 18 mg b.i.d.) | AE: Musculoskeletal and connective tissue disorders, patients n (Non-AF-group, 18 mg b.i.d.) | AE: Nausea, patients n (Non-AF-group, 18 mg b.i.d.) | AE: Weight decreased, patients n (Non-AF-group, 18 mg b.i.d.) | Severe AEs, patients n (Non-AF-group, 18 mg b.i.d.)
(6.3) %: AE: Dyspepsia, patients % (Non-AF-group, 18 mg b.i.d.) | AE: Dyspnoea, patients % (Non-AF-group, 18 mg b.i.d.) | AE: Flatulence, patients % (Non-AF-group, 18 mg b.i.d.) | AE: Headache, patients % (Non-AF-group, 18 mg b.i.d.) | AEs leading to discontinuation of trial drug, patients % (Non-AF-group, 18 mg b.i.d.) | Serious AEs (patients with ≥1 SAE), patients % (Non-AF-group, 18 mg b.i.d.)
(32.0) %: Gastrointestinal disorders, % (Total, N = 97)
7: AE: Infections and infestations, patients n (Non-AF-group, 18 mg b.i.d.)
(2.1) %: AE: Decreased appetite, patients % (Non-AF-group, 18 mg b.i.d.) | AE: Dizziness, patients % (Non-AF-group, 18 mg b.i.d.) | AE: Metabolism and nutrition disorders, patients % (Non-AF-group, 18 mg b.i.d.) | AE: Oedema peripheral, patients % (Non-AF-group, 18 mg b.i.d.) | AE: Pyrexia, patients % (Non-AF-group, 18 mg b.i.d.) | AE: Rhinorrhoea, patients % (Non-AF-group, 18 mg b.i.d.) | AE: Vomiting, patients % (Non-AF-group, 18 mg b.i.d.) | SAE: COPD, patients % (Non-AF-group, 18 mg b.i.d.) | SAE: Cardiac disorders, patients % (Non-AF-group, 18 mg b.i.d.) | SAE: Cardiac failure congestive, patients % (Non-AF-group, 18 mg b.i.d.) | SAE: Dyspnoea, patients % (Non-AF-group, 18 mg b.i.d.) | SAE: Infections and Infestations, patients % (Non-AF-group, 18 mg b.i.d.) | SAE: Lung neoplasm, patients % (Non-AF-group, 18 mg b.i.d.) | SAE: Neoplasms benign, malignant and unspecified, patients % (Non-AF-group, 18 mg b.i.d.) | SAE: Respiratory, thoracic and mediastinal disorders, patients % (Non-AF-group, 18 mg b.i.d.) | Vomiting leading to discontinuation of trial treatment, patients % (Non-AF-group, 18 mg b.i.d.) | Gastrointestinal disorders leading to discontinuation of trial treatment, patients % [1] | Abdominal Pain, % (Total, N = 97) | Arthralgia, % (Total, N = 97) | Bronchitis, % (Total, N = 97) | Condition aggravated, % (Total, N = 97) | Dizziness, % (Total, N = 97) | Oedema peripheral, % (Total, N = 97) | Pyrexia, % (Total, N = 97) | Rhinorrhoea, % (Total, N = 97)
3: AE: Dyspepsia, patients n (Non-AF-group, 18 mg b.i.d.) | AE: Dyspnoea, patients n (Non-AF-group, 18 mg b.i.d.) | AE: Flatulence, patients n (Non-AF-group, 18 mg b.i.d.) | AE: Headache, patients n (Non-AF-group, 18 mg b.i.d.) | AEs leading to discontinuation of trial drug, patients n (Non-AF-group, 18 mg b.i.d.) | Serious AEs (patients with ≥1 SAE), patients n (Non-AF-group, 18 mg b.i.d.)
(18.8) %: AE: General disorders and administration site conditions, patients % (Non-AF-group, 18 mg b.i.d.)
(16.5) %: General Disorders and Administration Side conditions, % (Total, N = 97)
8: AE: Diarrhoea, patients n (Non-AF-group, 18 mg b.i.d.) | AE: Respiratory, thoracic and mediastinal disorders, patients n (Non-AF-group, 18 mg b.i.d.)
